Measured values from patent publication US20260083865A1, “PROSTATE SPECIFIC MEMBRANE ANTIGEN (PSMA) LIGANDS AND USE THEREOF” (priority 2022, published 2026).
Read-outs that look alike come from different tables or passages of the source. One block for each compound: values may come before it. Numbered stars: 1 amine (or outer) side, 2 acyl side, 3 side chain; on linkers, the order of the positions; unused ones are H or OH. Bridge positions count the residues as written; N and C are the ends. Square brackets hold non-standard residues; d marks the D form. Peptide text beside a SMILES is read from it. * marks the point of attachment. DOTA = O=C(O)CN1CCN(CC(=O)O)CCN(CC(=O)*)CCN(CC(=O)O)CC1; Phe(3,4-Cl2) = N[C@@H](Cc1ccc(Cl)c(Cl)c1)C(=O)O; Phe(3-Cl) = N[C@@H](Cc1cccc(Cl)c1)C(=O)O; Phe(4-Cl) = N[C@@H](Cc1ccc(Cl)cc1)C(=O)O; Pro(4,4-F2) = O=C(O)[C@@H]1CC(F)(F)CN1; Hyp = O=C(O)[C@@H]1C[C@@H](O)CN1; X1 = O=C(CC1CCN([*:1])CC1)[*:2]; Cit = NC(=O)NCCC[C@H](N)C(=O)O; Tle = CC(C)(C)[C@H](N)C(=O)O; Propanoyl(3-OH) = O=C(CCO)*; Pyridin(2-yl) = c1ccc(*)nc1; Orn = NCCC[C@H](N)C(=O)O; Aib = CC(C)(N)C(=O)O; CO = O=C([*:1])[*:2]; NHBu = CCCCN*

Legend:
[1] = target: T1, PSMA-expressing C4-2 cells (Homo sapiens, UniProt Q04609); assay: FACS binding assay (competition with 50 nM PSM-0183)
T1 construct: PSMA-expressing C4-2 cells (ATCC, Cat. No. CRL-3314) were cultured in RPMI-1640; host or cells: C4-2 cells
T1 sequence (Q04609 whole entry): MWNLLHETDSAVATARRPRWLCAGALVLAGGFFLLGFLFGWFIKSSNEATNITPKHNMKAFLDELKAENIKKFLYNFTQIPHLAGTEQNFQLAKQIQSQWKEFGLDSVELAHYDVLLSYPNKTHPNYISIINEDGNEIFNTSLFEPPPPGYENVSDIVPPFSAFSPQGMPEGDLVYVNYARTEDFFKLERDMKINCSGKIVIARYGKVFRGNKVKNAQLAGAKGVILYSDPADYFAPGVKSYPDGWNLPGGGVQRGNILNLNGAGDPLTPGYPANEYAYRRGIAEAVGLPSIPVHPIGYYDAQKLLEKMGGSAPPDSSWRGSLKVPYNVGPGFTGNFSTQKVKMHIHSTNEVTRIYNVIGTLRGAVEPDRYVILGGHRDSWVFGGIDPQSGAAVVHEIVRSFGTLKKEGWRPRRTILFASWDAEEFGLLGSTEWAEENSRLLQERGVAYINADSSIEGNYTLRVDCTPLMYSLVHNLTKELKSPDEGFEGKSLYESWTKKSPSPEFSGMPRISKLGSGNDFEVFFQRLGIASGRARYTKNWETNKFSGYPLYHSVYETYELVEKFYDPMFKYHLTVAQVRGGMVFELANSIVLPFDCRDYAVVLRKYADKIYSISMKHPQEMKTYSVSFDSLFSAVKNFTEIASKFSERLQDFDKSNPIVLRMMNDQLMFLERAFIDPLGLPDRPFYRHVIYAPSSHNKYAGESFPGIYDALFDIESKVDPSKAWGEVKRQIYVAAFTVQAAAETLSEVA
Outline: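 C4-2 cells were incubated 1 h at 4 °C with 50 nM AF488-labelled peptide PSM-0183 plus increasing test compound concentrations, then washed twice in ice-cold buffer. Median fluorescence in the AF488 channel was read by flow cytometry. IC50/pIC50 was derived by 4PL fitting of MFI versus concentration.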

[2] = target: T2, Fc-fusion protein of human PSMA (hPSMA-Fc) (Homo sapiens, UniProt Q04609); assay: Surface plasmon resonance assay (Biacore T200, single cycle kinetic); assay type: binding
T2 construct: purchased Acro Biosystems PSA-H5264
T2 sequence (Q04609 44-750 limits assumed): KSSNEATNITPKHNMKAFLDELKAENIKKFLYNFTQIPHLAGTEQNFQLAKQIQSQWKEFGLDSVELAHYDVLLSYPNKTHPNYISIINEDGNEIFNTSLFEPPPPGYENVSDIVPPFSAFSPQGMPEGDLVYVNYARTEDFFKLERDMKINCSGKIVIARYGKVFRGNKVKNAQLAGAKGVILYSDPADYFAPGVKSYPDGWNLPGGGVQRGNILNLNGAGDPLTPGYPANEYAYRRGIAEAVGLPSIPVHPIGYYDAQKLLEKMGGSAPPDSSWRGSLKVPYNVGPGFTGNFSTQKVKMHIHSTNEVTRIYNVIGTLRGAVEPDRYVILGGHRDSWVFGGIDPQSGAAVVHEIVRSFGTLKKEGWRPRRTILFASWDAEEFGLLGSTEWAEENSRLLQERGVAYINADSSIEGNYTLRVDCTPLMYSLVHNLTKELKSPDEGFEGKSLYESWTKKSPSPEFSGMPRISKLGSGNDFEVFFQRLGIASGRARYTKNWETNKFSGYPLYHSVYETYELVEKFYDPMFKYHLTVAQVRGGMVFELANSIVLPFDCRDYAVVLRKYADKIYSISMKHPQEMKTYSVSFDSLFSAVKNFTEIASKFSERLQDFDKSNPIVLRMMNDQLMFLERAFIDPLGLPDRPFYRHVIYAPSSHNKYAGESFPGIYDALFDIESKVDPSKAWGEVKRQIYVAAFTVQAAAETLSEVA
Outline: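 hPSMA-Fc was captured (~1000 RU) on an Fc-binding-peptide CM5 chip, and compounds were run in single cycle kinetic mode at 25° C in HBST with 0.1% DMSO. Double-blank-corrected sensorgrams were fitted to a 1:1 Langmuir model to give KD, reported as pKD.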

[3] = FACS binding, C4-2 cells, competition with 50 nM PSM-0183, category, read-out: pIC50 [C4-2] CAT (converted)
[4] = SPR, hPSMA-Fc, single cycle kinetic, 25° C., category, read-out: pKD CAT (converted)

IC50 [1, 3]: < 200 nM | Kd [2, 4]: < 12.6 nM
Structure (SMILES): CC(=O)N[C@H](C(=O)NC(C)(C)C(=O)N[C@@H](Cc1ccccc1)C(=O)N[C@H]1CSSC[C@@H](C(=O)N[C@H](C(=O)N[C@H](C(=O)N[C@@H](CC(=O)O)C(N)=O)[C@@H](C)O)C(C)(C)C)NC(=O)[C@H](CC(N)=O)NC(=O)[C@@H]2C[C@@H](O)CN2C(=O)[C@H](CCCNC(=N)N)NC(=O)[C@H](CCCCN)NC1=O)[C@@H](C)O [PSM-0181, Ac-Thr-Aib-Phe-[Cys-Lys-Arg-Hyp-Asn-Cys]-Tle-Thr-Asp-NH2] (Ac-T[Aib]FCKR[Hyp]NC[Tle]TD-NH2; disulfide 4-9)

IC50 ([1]; FACS binding, PSMA-expressing C4-2 cells, pIC50 category, read-out: pIC50 [C4-2] CAT (converted)): < 200 nM | Kd ([2]; PSMA SPR assay, hPSMA-Fc, 25° C., pKD category, read-out: pKD CAT (converted)): 12.6 to 126 nM
Structure (SMILES): C[C@@H](O)[C@H](NC(=O)[C@@H](NC(=O)[C@@H]1CSSC[C@H](NC(=O)[C@H](Cc2ccc(Cl)c(Cl)c2)NC(=O)C(C)(C)NC(=O)[C@@H](NC(=O)CC2CCN(C(=O)CN3CCN(CC(=O)O)CCN(CC(=O)O)CCN(CC(=O)O)CC3)CC2)[C@@H](C)O)C(=O)N[C@@H](CCCCN)C(=O)N[C@@H](CCCNC(N)=O)C(=O)NC(C)(C)C(=O)N[C@@H](CC(N)=O)C(=O)N1)C(C)(C)C)C(N)=O [PSM-0274, DOTA-Cmp-Thr-Aib-Eaa-[Cys-Lys-Cit-Aib-Asn-Cys]-Tle-Thr-NH2] ({DOTA}-[X1]T[Aib][Phe(3,4-Cl2)]CK[Cit][Aib]NC[Tle]T-NH2; disulfide 5-10)

IC50 ([1]; FACS binding, C4-2 cells, category, read-out: pIC50 [C4-2] CAT (converted)): 200 to 1260 nM | Kd ([2]; PSMA SPR assay, category, read-out: pKD CAT (converted)): 12.6 to 126 nM
Structure (SMILES): CCCCNC(=O)N[C@H](C(=O)NC(C)(C)C(=O)N[C@@H](Cc1cccc(Cl)c1)C(=O)N[C@H]1CSSC[C@@H](C(=O)N[C@H](C(=O)N[C@H](C(=O)N2CCC(CC(=O)N[C@H](CCCCNC(=O)CN3CCN(CC(=O)O)CCN(CC(=O)O)CCN(CC(=O)O)CC3)C(N)=O)CC2)[C@@H](C)O)C(C)(C)C)NC(=O)[C@H](CC(N)=O)NC(=O)C(C)(C)NC(=O)[C@H](CCCNc2ccccn2)NC(=O)[C@H](CCCCN)NC1=O)[C@@H](C)O [PSM-0571, nBuCAyl-Thr-Aib-Mcf-[Cys-Lys-Opy-Aib-Asn-Cys]-Tle-Thr-Cmp-lys(DOTA)-NH2] ({NHBu-CO}-T[Aib][Phe(3-Cl)]CK[Orn](Pyridin(2-yl))[Aib]NC[Tle]T[X1][dK](DOTA)-NH2; disulfide 4-9)

IC50 [1, 3]: < 200 nM | Kd [2, 4]: < 12.6 nM
Structure (SMILES): C[C@@H](O)[C@H](NC(=O)[C@@H](NC(=O)[C@@H]1CSSC[C@H](NC(=O)[C@H](Cc2ccc(Cl)cc2)NC(=O)C(C)(C)NC(=O)[C@@H](NC(=O)CC2CCN(C(=O)CN3CCN(CC(=O)O)CCN(CC(=O)O)CCN(CC(=O)O)CC3)CC2)[C@@H](C)O)C(=O)N[C@@H](CCCCN)C(=O)N[C@@H](CCCN)C(=O)NC(C)(C)C(=O)N[C@@H](CC(N)=O)C(=O)N1)C(C)(C)C)C(N)=O [PSM-0245, DOTA-Cmp-Thr-Aib-Pcf-[Cys-Lys-Orn-Aib-Asn-Cys]-Tle-Thr-NH2] ({DOTA}-[X1]T[Aib][Phe(4-Cl)]CK[Orn][Aib]NC[Tle]T-NH2; disulfide 5-10)

Structure (SMILES): CC(=O)N[C@H](C(=O)NC(C)(C)C(=O)N[C@@H](Cc1ccccc1)C(=O)N[C@H]1CSSC[C@@H](C(=O)N[C@H](C(=O)N[C@H](C(=O)N[C@@H](CC(=O)O)C(N)=O)[C@@H](C)O)C(C)(C)C)NC(=O)[C@H](CC(N)=O)NC(=O)[C@@H]2CC(F)(F)CN2C(=O)[C@H](CCCNC(=N)N)NC(=O)[C@H](CCCCN)NC1=O)[C@@H](C)O [PSM-0217, Ac-Thr-Aib-Phe-[Cys-Lys-Arg-Dfp-Asn-Cys]-Tle-Thr-Asp-NH2] (Ac-T[Aib]FCKR[Pro(4,4-F2)]NC[Tle]TD-NH2; disulfide 4-9)
IC50 [1]: < 200 nM | Kd [2]: 12.6 to 126 nM

IC50 ([1]; pIC50 category of FACS binding, C4-2 cells, read-out: pIC50 [C4-2] CAT (converted)): < 200 nM | Kd ([2]; pKD category for PSMA SPR activity assay, hPSMA-Fc, 25° C., read-out: pKD CAT (converted)): < 12.6 nM
Structure (SMILES): C[C@@H](O)[C@H](NC(=O)[C@@H](NC(=O)[C@@H]1CSSC[C@H](NC(=O)[C@H](Cc2ccc(Cl)cc2)NC(=O)C(C)(C)NC(=O)CCO)C(=O)N[C@@H](CCCCN)C(=O)N[C@@H](CCCNC(=N)N)C(=O)NC(C)(C)C(=O)N[C@@H](CC(N)=O)C(=O)N1)C(C)(C)C)C(=O)N1CCC(CC(=O)N[C@H](CCCCNC(=O)CN2CCN(CC(=O)O)CCN(CC(=O)O)CCN(CC(=O)O)CC2)C(N)=O)CC1 [PSM-0509, HPA-Aib-Pcf-[Cys-Lys-Arg-Aib-Asn-Cys]-Tle-Thr-Cmp-lys(DOTA)-NH2] ({Propanoyl(3-OH)}-[Aib][Phe(4-Cl)]CKR[Aib]NC[Tle]T[X1][dK](DOTA)-NH2; disulfide 3-8)

IC50 [1, 3]: 1260 to 3160 nM | Kd [2, 4]: > 501 nM
Structure (SMILES): CCCC[C@H](NC(=O)[C@@H]1CSSC[C@H](NC(=O)[C@H](Cc2ccccc2)NC(=O)[C@H](C)NC(=O)[C@@H](NC(C)=O)[C@@H](C)O)C(=O)N[C@@H](CCCCN)C(=O)N[C@@H](CCCNC(=N)N)C(=O)N[C@@H](C)C(=O)N[C@@H](CC(N)=O)C(=O)N1)C(=O)N[C@@H](C(=O)N[C@H](CC(=O)O)C(N)=O)[C@H](C)O [PSM-0182, Ac-Thr-Ala-Phe-[Cys-Lys-Arg-Ala-Asn-Cys]-Nle-thr-Asp-NH2]
